Results reported in publication PMC12667733.

Assay: head-to-tail lactamisation of side-chain-protected linear peptides, PyBOP (2 equiv), DIPEA (3 equiv, added dropwise), overnight at rt under N2; then TFA global deprotection and prep RP-HPLC
Details: the molecule shown is the open-chain precursor, DMF, 1.0 mM, 25.0 °C, 2 steps

Structure (SMILES)	ring closure, yield over several steps (15-membered ring)	ring closure, yield over several steps (21-membered ring)	other results
CC(C)[C@H](NC(=O)CN)C(=O)N[C@@H](CCCCNC(=O)OC(C)(C)C)C(=O)N[C@@H](Cc1ccc(OC(C)(C)C)cc1)C(=O)N[C@@H](C)C(=O)O [H-Gly-Val-Lys(Boc)-Tyr(tBu)-Ala-OH]	68%	–	–
CC(C)[C@H](NC(=O)[C@@H]1CCCN1C(=O)[C@@H](NC(=O)CN)C(C)C)C(=O)N[C@@H](Cc1cn(C(=O)OC(C)(C)C)c2ccccc12)C(=O)N[C@@H](C)C(=O)O [H-Gly-Val-Pro-Val-Trp(Boc)-Ala-OH]	–	–	ring closure, yield over several steps (18-membered ring): 51%
CC(C)C[C@H](NC(=O)CN)C(=O)N[C@@H](COC(C)(C)C)C(=O)N[C@@H](Cc1ccccc1)C(=O)N[C@@H](C)C(=O)N[C@@H](Cc1ccccc1)C(=O)N1CCC[C@H]1C(=O)O [H-Gly-Leu-Ser(tBu)-Phe-Ala-Phe-Pro-OH]	–	54%	–
C[C@H](N)C(=O)N[C@@H](COC(C)(C)C)C(=O)N[C@@H](Cc1ccc(OC(C)(C)C)cc1)C(=O)N[C@@H](COC(C)(C)C)C(=O)N[C@@H](COC(C)(C)C)C(=O)N[C@@H](CCCCNC(=O)OC(C)(C)C)C(=O)N1CCC[C@H]1C(=O)N[C@@H](Cc1ccccc1)C(=O)N[C@@H](COC(C)(C)C)C(=O)O	–	–	ring closure, yield over several steps (27-membered ring): 62%
CC(C)C[C@H](NC(=O)CN)C(=O)N[C@@H](Cc1cn(C(c2ccccc2)(c2ccccc2)c2ccccc2)cn1)C(=O)N[C@@H](Cc1ccccc1)C(=O)N[C@@H](C)C(=O)N[C@@H](Cc1ccccc1)C(=O)N1CCC[C@H]1C(=O)O [H-Gly-Leu-His(Trt)-Phe-Ala-Phe-Pro-OH]	–	56%	–
CC(C)[C@H](NC(=O)CN)C(=O)N[C@@H](C)C(=O)N[C@@H](Cc1cn(C(=O)OC(C)(C)C)c2ccccc12)C(=O)N[C@@H](C)C(=O)O [H-Gly-Val-Ala-Trp(Boc)-Ala-OH]	48%	–	–
CC(C)C[C@H](NC(=O)CNC(=O)[C@H](Cc1cn(C(c2ccccc2)(c2ccccc2)c2ccccc2)cn1)NC(=O)[C@@H](NC(=O)CNC(=O)[C@@H](N)Cc1ccccc1)[C@@H](C)OC(C)(C)C)C(=O)N1CCC[C@H]1C(=O)N[C@@H](C)C(=O)N1CCC[C@H]1C(=O)O [H-Phe-Gly-Thr(tBu)-His(Trt)-Gly-Leu-Pro-Ala-Pro-OH]	–	–	ring closure, yield over several steps (27-membered ring): 57%
Cc1c(C)c(S(=O)(=O)NC(=N)NCCC[C@H](NC(=O)[C@H](Cc2ccc(OC(C)(C)C)cc2)NC(=O)CN)C(=O)N[C@@H](Cc2ccccc2)C(=O)N[C@@H](COC(C)(C)C)C(=O)O)c(C)c2c1OC(C)(C)C2 [H-Gly-Tyr(tBu)-Arg(Pbf)-Phe-Ser(tBu)-OH]	64%	–	–
CC(C)C[C@H](NC(=O)[C@@H]1CCCN1C(=O)[C@@H](NC(=O)[C@H](Cc1ccc(OC(C)(C)C)cc1)NC(=O)CN)C(C)C)C(=O)N[C@@H](Cc1cn(C(=O)OC(C)(C)C)c2ccccc12)C(=O)N1CCC[C@H]1C(=O)O [H-Gly-Tyr(tBu)-Val-Pro-Leu-Trp(Boc)-Pro-OH]	–	57%	–
Cc1c(C)c(S(=O)(=O)NC(=N)NCCC[C@H](NC(=O)CN)C(=O)N[C@H](C(=O)N[C@@H](CCCCNC(=O)OC(C)(C)C)C(=O)N[C@@H](C)C(=O)O)C(C)C)c(C)c2c1OC(C)(C)C2 [H-Gly-Arg(Pbf)-Val-Lys(Boc)-Ala-OH]	63%	–	–
